According to US9339471B2, “Long acting dual release product containing carbinoxamine and pseudoephedrine” (E5 PHARMA, LLC, priority 2007, dated 2016):
Like-named read-outs stand apart in the source and are kept apart here. Marks after values point to notes of the source that are not given here.

Assays:
[1] = cited from earlier work; for AUC(0-t): AUC0-6
[2] = Single dose bioavailability study in the non-fasted state, 4 mg immediate release carbinoxamine maleate tablet; type: in vivo; set-up: Plasma concentration of carbinoxamine: unit not given here; details: nonfasted; for AUC(0-t) / Cmax / MRT / Tmax / half-life / AUC: human, plasma, po, 4 mg; for AUC: read-out: AUC0-
Protocol: A single dose bioavailability study was also undertaken in the non-fasted state using 4 mg immediate release carbinoxamine maleate tablets formulated in an immediate release format. Samples were taken over a forty eight hours period after administration of the drug with heparinized tubes. Breakfast was ingested thirty minutes before administration.
FIG. 2 is a mean plasma concentration-time profile of carbinoxamine after administering the 4 mg carbinoxamine maleate immediate release tablet in the non-fasted state from time 0 to time 48 hours. Graph (A) is the linear ordinate; graph (B) is the log-linear ordinate. FIG. 3 is an overlay of mean plasma concentration-time profiles of carbinoxamine administered under nonfasted and fasted conditions from time 0 to 48 hours, as reported in Example 3. Graph (A) is an overlay in the linear ordinates for the two conditions; graph (B) is an overlay in the log-linear ordinates for the two conditions.

[3] = cited from earlier work; for AUC(0-t): AUC0-24
[4] = 4 mg retard capsule, single administration
[5] = 4 mg retard capsule, successive administrations
[6] = Literature 2, Aqueous solution 4 mg
[7] = Literature 2, Retard capsule 4 mg
[8] = Literature 2, Retard capsule SS 4 mg, steady-state (q12 h)
[9] = Literature 1, Aqueous solution 8 mg
[10] = Literature 1, Retard capsule 8 mg

For `CN(C)CCOC(c1ccc(Cl)cc1)c1ccccn1` (centres unmarked) [carbinoxamine, 2-[(4-chlorophenyl)-2-pyridinylmethoxy]-N,N-dimethylethanamine (Z)-2-butenedioate (1:1)], the Cmax [1, 4] is listed as 4.5 ng/mL, the Tmax [1, 4] is listed as 6.2 h and the half life [1, 4] is listed as 30 h. The Cmax [1, 5] was 13.5 ng/mL, the Tmax [1, 5] was 4.8 h and the half life [1, 5] was 22 h. The AUC(0-t) [1, 6] was 64^c ng/ml * h, the Cmax [1, 6] was 6.5 ng/mL and the T1/2 [1, 6] was 15 h. For the same molecule, the Tmax [1, 6] was 2.6 h, the AUC(0-t) [1, 7] was 57^c ng/ml * h and the Cmax [1, 7] was 4.5 ng/mL. For the same molecule, the T1/2 [1, 7] was 30 h, the Tmax [1, 7] was 6.2 h and the “AUC0-* ·” value [1, 8] was 125 ng·h/mL. For the same molecule, the Cmax [1, 8] was 13.5 ng/mL, the T1/2 [1, 8] was 22 h and the Tmax [1, 8] was 4.8 h. The AUC(0-t) ([2]; Mean) was 212 ng·h/mL, the Cmax ([2]; Mean) was 12.6 ng/mL and the MRT ([2]; Mean) was 26.9 h. For the same molecule, the Tmax ([2]; Mean) was 2.67 h, the half-life ([2]; Mean) was 19 h and the AUC ([2]; Mean) was 260 ng·h/mL. For the same molecule, the AUC(0-t) ([2]; subject 101) was 175 ng·h/mL, the Cmax ([2]; subject 101) was 8.11 ng/mL and the MRT ([2]; subject 101) was 25.6 h. It also gave a Tmax ([2]; subject 101) of 4 h, a half-life ([2]; subject 101) of 17.1 h and an AUC ([2]; subject 101) of 206 ng·h/mL. The AUC(0-t) ([2]; subject 102) was 292 ng·h/mL, the Cmax ([2]; subject 102) was 18.9 ng/mL and the MRT ([2]; subject 102) was 31.7 h. The Tmax ([2]; subject 102) was 2 h, the half-life ([2]; subject 102) was 22.9 h and the AUC ([2]; subject 102) was 178 ng·h/mL. The AUC(0-t) ([2]; subject 103) was 170 ng·h/mL, the Cmax ([2]; subject 103) was 10.7 ng/mL and the MRT ([2]; subject 103) was 23.4 h. For the same molecule, the Tmax ([2]; subject 103) was 2 h, the half-life ([2]; subject 103) was 16.9 h and the AUC ([2]; subject 103) was 196 ng·h/mL. The “Plasma concentration of carbinoxamine” value ([2]; 0 h, subject 101T) was “blq”, the “Plasma concentration of carbinoxamine” value ([2]; 0 h, subject 102T) was “blq” and the “Plasma concentration of carbinoxamine” value ([2]; 0 h, subject 103T) was “blq”. The “Plasma concentration of carbinoxamine” value ([2]; 0.5 h, T-Mean) was 1415.00, the “Plasma concentration of carbinoxamine” value ([2]; 0.5 h, subject 101T) was 1190.29 and the “Plasma concentration of carbinoxamine” value ([2]; 0.5 h, subject 102T) was 1371.47. The “Plasma concentration of carbinoxamine” value ([2]; 0.5 h, subject 103T) was 1683.25, the “Plasma concentration of carbinoxamine” value ([2]; 1 h, T-Mean) was 9391.48 and the “Plasma concentration of carbinoxamine” value ([2]; 1 h, subject 101T) was 5017.55. The “Plasma concentration of carbinoxamine” value ([2]; 1 h, subject 102T) was 15948.51, the “Plasma concentration of carbinoxamine” value ([2]; 1 h, subject 103T) was 7208.39 and the “Plasma concentration of carbinoxamine” value ([2]; 2 h, T-Mean) was 12274.78. The “Plasma concentration of carbinoxamine” value ([2]; 2 h, subject 101T) was 7279.95, the “Plasma concentration of carbinoxamine” value ([2]; 2 h, subject 102T) was 18873.34 and the “Plasma concentration of carbinoxamine” value ([2]; 2 h, subject 103T) was 10671.05. The “Plasma concentration of carbinoxamine” value ([2]; 3 h, T-Mean) was 10596.92, the “Plasma concentration of carbinoxamine” value ([2]; 3 h, subject 101T) was 7409.87 and the “Plasma concentration of carbinoxamine” value ([2]; 3 h, subject 102T) was 14981.55. For the same molecule, the “Plasma concentration of carbinoxamine” value ([2]; 3 h, subject 103T) was 9399.33, the “Plasma concentration of carbinoxamine” value ([2]; 4 h, T-Mean) was 9957.93 and the “Plasma concentration of carbinoxamine” value ([2]; 4 h, subject 101T) was 8113.91. For the same molecule, the “Plasma concentration of carbinoxamine” value ([2]; 4 h, subject 102T) was 12868.20, the “Plasma concentration of carbinoxamine” value ([2]; 4 h, subject 103T) was 8891.67 and the “Plasma concentration of carbinoxamine” value ([2]; 5 h, T-Mean) was 9064.58. The “Plasma concentration of carbinoxamine” value ([2]; 5 h, subject 101T) was 7450.78, the “Plasma concentration of carbinoxamine” value ([2]; 5 h, subject 102T) was 11670.11 and the “Plasma concentration of carbinoxamine” value ([2]; 5 h, subject 103T) was 8072.86. The “Plasma concentration of carbinoxamine” value ([2]; 6 h, T-Mean) was 8311.90, the “Plasma concentration of carbinoxamine” value ([2]; 6 h, subject 101T) was 7053.79 and the “Plasma concentration of carbinoxamine” value ([2]; 6 h, subject 102T) was 10649.47. The “Plasma concentration of carbinoxamine” value ([2]; 6 h, subject 103T) was 7232.44, the “Plasma concentration of carbinoxamine” value ([2]; 8 h, T-Mean) was 7184.22 and the “Plasma concentration of carbinoxamine” value ([2]; 8 h, subject 101T) was 6458.92. The “Plasma concentration of carbinoxamine” value ([2]; 8 h, subject 102T) was 8834.94, the “Plasma concentration of carbinoxamine” value ([2]; 8 h, subject 103T) was 6258.79 and the “Plasma concentration of carbinoxamine” value ([2]; 12 h, T-Mean) was 5363.07. For the same molecule, the “Plasma concentration of carbinoxamine” value ([2]; 12 h, subject 101T) was 4676.58, the “Plasma concentration of carbinoxamine” value ([2]; 12 h, subject 102T) was 7186.93 and the “Plasma concentration of carbinoxamine” value ([2]; 12 h, subject 103T) was 4225.70. For the same molecule, the “Plasma concentration of carbinoxamine” value ([2]; 24 h, T-Mean) was 3869.18, the “Plasma concentration of carbinoxamine” value ([2]; 24 h, subject 101T) was 3297.38 and the “Plasma concentration of carbinoxamine” value ([2]; 24 h, subject 102T) was 5400.86. The “Plasma concentration of carbinoxamine” value ([2]; 24 h, subject 103T) was 2909.31, the “Plasma concentration of carbinoxamine” value ([2]; 36 h, T-Mean) was 2453.59 and the “Plasma concentration of carbinoxamine” value ([2]; 36 h, subject 101T) was 2197.69. The “Plasma concentration of carbinoxamine” value ([2]; 36 h, subject 102T) was 3336.26, the “Plasma concentration of carbinoxamine” value ([2]; 36 h, subject 103T) was 1826.88 and the “Plasma concentration of carbinoxamine” value ([2]; 48 h, T-Mean) was 1650.44. The “Plasma concentration of carbinoxamine” value ([2]; 48 h, subject 101T) was 1249.68, the “Plasma concentration of carbinoxamine” value ([2]; 48 h, subject 102T) was 2616.93 and the “Plasma concentration of carbinoxamine” value ([2]; 48 h, subject 103T) was 1084.70. For the same molecule, the Cmax ([3]; 8 mg aqueous solution) was 24 ng/mL, the half-life ([3]; 8 mg aqueous solution) was 10.6 h and the Cmax ([3]; 8 mg retard capsule) was 16.9 ng/mL. The Tmax ([3]; 8 mg retard capsule) was 8 h, the half-life ([3]; 8 mg retard capsule) was 14.5 h and the AUC(0-t) [3, 9] was 386^b ng/ml * h. For the same molecule, the Cmax [3, 9] was 24 ng/mL, the T1/2 [3, 9] was 10.6 h and the AUC(0-t) [3, 10] was 238^b ng/ml * h. The Cmax [3, 10] was 16.9 ng/mL and the T1/2 [3, 10] was 14.5 h.
